Tests used:
[1] = test system: corn rust; test: protectant activity in vivo against corn rust; settings: Zea mays, 168 h, protectant activity; for pest or weed control at 6.25 µg/mL: read-out: control effect against corn rust (%), 6.25 mg/L; for pest or weed control at 25 µg/mL: read-out: control effect against corn rust (%), 25 mg/L; for pest or weed control at 100 µg/mL: read-out: control effect against corn rust (%), 100 mg/L; for pest or weed control at 400 µg/mL: read-out: control effect against corn rust (%), 400 mg/L
[2] = test system: cucumber downy mildew; test: protectant activity in vivo against cucumber downy mildew; settings: Cucumis sativus, 168 h, protectant activity; for pest or weed control at 25 µg/mL: read-out: control effect against cucumber downy mildew (%), 25 mg/L; for pest or weed control at 50 µg/mL: read-out: control effect against cucumber downy mildew (%), 50 mg/L; for pest or weed control at 100 µg/mL: read-out: control effect against cucumber downy mildew (%), 100 mg/L; for pest or weed control at 400 µg/mL: read-out: control effect against cucumber downy mildew (%), 400 mg/L
[3] = test system: carmine spider mite; test: bioactivity test against carmine spider mite, airbrush spray; assay type: in vivo; settings: Tetranychus cinnabarinus, 72 h, contrastive test, read-out: Insecticidal activity against carmine spider mite (% )
Outline: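 Broadbean seedlings infested with adult mites were sprayed with compound (acetone/methanol stock diluted in 0.1% Tween 80 water) by airbrush at 0.7 kg/cm^2, 0.5 ml. Three replicates were run. Mortality was scored after 72 hrs.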

[4] = test system: armyworm; test: bioactivity test against armyworm, airbrush spray; assay type: in vivo; settings: 72 h, 600 mg/L; read-out: Insecticidal activity against armyworm (%)
Protocol: (§1) Compounds were dissolved in mixed solvent (acetone:methanol=1:1), and diluted to required concentration with water containing 0.1% of tween 80.
(§2) Diamond back moth, armyworm, peach aphid and carmine spider mite were used as targets and the method of spraying by airbrush was used for determination of insecticidal biassays.
(§3) The method of spraying by airbrush: The corn leaves were made into plates of 2 cm diameter by use of punch. A test solution (0.5 ml) was sprayed by airbrush at the pressure of 0.7 kg/cm^2 to both sides of every plate. 10 Second instar larvae were put into the petri-dishes after the leaf disc air-dried and 3 replicates were set for each treatment. Then the insects were maintained in observation room (25 °C, 60˜70% R.H.). Scores were conducted and mortalities were calculated after 72 h.

[5] = test system: Diamond back moth; test: insecticidal activity against diamond back moth, airbrush spray; assay type: in vivo; settings: 72 h, 600 mg/L
Protocol: as §1, §2
as §3, with “The cabbage” for “The corn”, “room (25° C.,” for “room (25 °C,”, “72 hrs.” for “72 h.”

[6] = test system: Green peach aphids (Myzus Persicae Sulzer); test: bioactivity test against green peach aphid, airbrush foliar spray; assay type: in vivo; settings: Myzus persicae, foliar, 48 h, contrastive test, read-out: Insecticidal activity against peach aphid (%); for pest or weed control at 600 µg/mL: 600 mg/L
Outline: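 Death rate was scored at 48 hrs, held at 25±1 C and 60±5% RH, following airbrush foliar spray (0.5 mL, 10 psi) onto cabbage leaf discs bearing about 15-30 aphids. Test solutions: compound dissolved in 1:1 acetone:methanol, brought to concentration with 0.1% tween 80 water.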

[7] = test system: wheat powdery mildew; test: protectant activity in vivo against wheat powdery mildew; settings: Triticum aestivum, 168 h, protectant activity

Row | SMILES | pest or weed control at 6.25 µg/mL [1] [%] | pest or weed control at 25 µg/mL [1] [%] | pest or weed control at 100 µg/mL [1] [%] | pest or weed control at 400 µg/mL [1] [%] | pest or weed control at 25 µg/mL [2] [%] | pest or weed control at 50 µg/mL [2] [%] | pest or weed control at 100 µg/mL [2] [%] | pest or weed control at 400 µg/mL [2] [%] | pest or weed control at 600 µg/mL [4] [%] | pest or weed control at 600 µg/mL [5] [%] | pest or weed control at 600 µg/mL [6] [%] | also measured
1 | Cc1ncnc(NC(C)c2ccc(Oc3ccc(C(F)(F)F)cn3)cc2)c1Cl (stereo not drawn) [CK28, reference compound] | 95 | 100 | 100 | 100 | 0 | 20 | 40 | 100 | 29 | 0 | 100 | pest or weed control at 0.4 µg/mL ([1]; read-out: control effect against corn rust (%), 0.4 mg/L): 0%; pest or weed control at 1.6 µg/mL ([1]; read-out: control effect against corn rust (%), 1.6 mg/L): 0%; pest or weed control at 10 µg/mL ([3]; 10 mg/L): 22%; pest or weed control at 100 µg/mL ([3]; 100 mg/L): 100%; pest or weed control at 600 µg/mL ([3]; 600 mg/L): 100%; pest or weed control at 10 µg/mL ([6]; 10 mg/L): 43%; pest or weed control at 100 µg/mL ([6]; 100 mg/L): 100%
2 | Cc1ncnc(NC(C)c2ccc(Oc3nc(Cl)c(Cl)cc3Cl)cc2)c1Cl (stereo not drawn) [CK29, reference compound] | 30 | 85 | 95 | 100 | 25 | 90 | 98 | 98 | 14 | 0 | 0 | pest or weed control at 6.25 µg/mL ([7]; read-out: control effect against wheat powdery mildew (%), 6.25 mg/L): 40%; pest or weed control at 25 µg/mL ([7]; read-out: control effect against wheat powdery mildew (%), 25 mg/L): 50%; pest or weed control at 100 µg/mL ([7]; read-out: control effect against wheat powdery mildew (%), 100 mg/L): 80%; pest or weed control at 400 µg/mL ([7]; read-out: control effect against wheat powdery mildew (%), 400 mg/L): 100%

Source: patent publication US9770026B2, “Substituted pyrimidine compound and uses thereof” (Shenyang Sinochem Agrochemicals R&D Co., Ltd., priority 2012, dated 2017)
